Where two headings read alike, the source gives them in different places.
Experiments:
[1] = tested on: Eng195 M2-N31 TM/CD peptides; assay type: biochemical
[2] = tested on: A/England/195/2009 (E195) influenza A virus; assay: microbe, parasite or virus in culture; assay type: cell-based; conditions: for IC50: read-out: Virus culture IC50
Eng195 in MDCK culture = assay type: cell-based, influenza A virus
[3] = tested on: M2-N31 and M2-S31 CD peptides; assay type: biochemical, Influenza A/England/195/2009 (H1N1)
H1N1 WSN virus = conditions: read-out: EC50 in antiviral plaque assay; cited from earlier work

SMILES	TM/CD peptide preference in titration [1]	Virus culture Fold Titre Reduction (80 µM) [2]	IC50 ([2]; Influenza A virus, MDCK)	combination effect with M2WJ332 (Eng195 in MDCK culture)	antiviral effect versus Eng195 in culture [2]	other results
Cc1ccc2nc(Oc3ccccc3)ccc2c1 [DP9]	preferential inhibition of CD peptides	100x	25000 to 50000 nM	synergistic		IC50 [2]: > 25000 nM
Cc1ncc(C23CC4CC(CC(C4)C2)C3)[nH]1 [H]					antiviral effects	
CCCCCCCCCN1C[C@H](O)[C@@H](O)[C@H](O)[C@H]1CO [NNDNJ, reference compound]					antiviral effects	effect on M2 oligomerisation [3]: disrupted oligomerisation
c1cc2nc(C34CC5CC(CC(C5)C3)C4)[nH]c2cn1 [D]					antiviral effects	
OCCNC12CC3CC(CC(C3)C1)C2 [J]					antiviral effects	
c1csc(-c2cc(CNC34CC5CC(CC(C5)C3)C4)no2)c1 [M2WJ332, (3S,5S,7S)-N-{[5-(thiophen-2-yl)-1,2-oxazol-3-yl]methyl}tricycle[3.3.1.1~3,7~]decan-1-aminium, reference compound]		100x	1180 nM			EC50 (H1N1 WSN virus): 153 nM; reduction in virus titre [2]: 1–2 log10; IC50 [2]: 1180 nM
Cc1c2ccccc2n2cc(-c3ccccc3)nc(C(C)C)c12 [DL7]	preference for CD peptides but with activity versus TM at higher concentrations	100x	1480 nM	antagonism		combination effect with L1.1 (Eng195 in MDCK culture): antagonism
CN1CCN(C(=O)c2ccc3ccccc3c2)CC1 [B]					neither B nor K exhibited antiviral effects	
O=C(Nc1nnc[nH]1)c1cc2ccccc2o1 [K]					neither B nor K exhibited antiviral effects	
COc1ccccc1NC(=S)NC(=O)c1cc2ccccc2cc1OC [L1.1]	equivalent activity versus both TM/CD	1000x	1330 nM	synergistic		reduction in virus titre [2]: ~3 log10; combination effect with Zanamivir (Eng195 in MDCK culture): synergistic

— paper PMC7418971 (PLoS Pathogens, 2020)
